Experimental findings from US10829452B2, “Histone methyltransferase inhibitors” (GLOBAL BLOOD THERAPEUTICS, INC., priority 2016, dated 2020) are described below.

Each structure is given as a SMILES string. Where a name gives a salt, the structure may show the parent alone.

The assay concerns the target T1, G9a (Homo sapiens, UniProt Q96KQ7).
T1 sequence (Q96KQ7 1-1210): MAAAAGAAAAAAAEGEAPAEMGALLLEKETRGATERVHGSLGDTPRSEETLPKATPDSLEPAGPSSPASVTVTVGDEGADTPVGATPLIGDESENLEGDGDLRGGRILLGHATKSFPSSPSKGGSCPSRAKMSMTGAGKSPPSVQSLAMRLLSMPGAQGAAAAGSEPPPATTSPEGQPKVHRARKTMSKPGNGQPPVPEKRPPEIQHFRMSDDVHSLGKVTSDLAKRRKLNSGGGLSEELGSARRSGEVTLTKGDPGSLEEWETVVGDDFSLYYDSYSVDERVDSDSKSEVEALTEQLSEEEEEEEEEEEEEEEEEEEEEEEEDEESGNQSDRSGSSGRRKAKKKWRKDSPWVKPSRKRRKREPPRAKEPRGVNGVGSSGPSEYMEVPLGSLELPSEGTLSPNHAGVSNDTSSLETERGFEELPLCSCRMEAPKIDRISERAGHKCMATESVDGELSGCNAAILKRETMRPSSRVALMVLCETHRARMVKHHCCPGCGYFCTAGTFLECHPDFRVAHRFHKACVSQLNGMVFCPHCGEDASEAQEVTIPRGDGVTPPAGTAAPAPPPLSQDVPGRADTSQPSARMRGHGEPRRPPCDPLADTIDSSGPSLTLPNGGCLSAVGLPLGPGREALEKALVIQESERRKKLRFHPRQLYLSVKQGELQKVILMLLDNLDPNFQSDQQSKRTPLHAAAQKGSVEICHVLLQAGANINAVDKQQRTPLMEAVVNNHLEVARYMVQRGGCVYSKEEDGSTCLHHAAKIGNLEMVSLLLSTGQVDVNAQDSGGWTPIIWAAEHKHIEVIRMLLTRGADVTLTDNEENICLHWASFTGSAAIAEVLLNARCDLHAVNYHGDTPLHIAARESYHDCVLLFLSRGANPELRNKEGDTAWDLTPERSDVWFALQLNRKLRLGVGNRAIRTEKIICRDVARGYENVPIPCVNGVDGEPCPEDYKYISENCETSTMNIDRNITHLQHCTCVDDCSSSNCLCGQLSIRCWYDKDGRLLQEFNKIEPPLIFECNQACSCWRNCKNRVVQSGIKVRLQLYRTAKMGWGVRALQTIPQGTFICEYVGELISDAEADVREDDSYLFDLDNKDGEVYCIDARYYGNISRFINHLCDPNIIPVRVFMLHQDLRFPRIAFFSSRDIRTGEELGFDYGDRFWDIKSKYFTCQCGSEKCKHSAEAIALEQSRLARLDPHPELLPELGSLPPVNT
Description: G9a AlphaLISA enzymatic activity assay. The format is biochemical. As to conditions: 0.15 nM G9a, 15 uM S-adenosyl-methionine, 100 nM biotinylated histone 3 peptide (1-21), 1 hour at room temperature; read-out: G9a in (uM) (IC50, concentration that produced 50% inhibition). The method, boiled down: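 Human G9a (0.15 nM) methylated 100 nM biotinylated histone H3(1-21) peptide with 15 uM SAM in Tris-HCl pH9 buffer with NaCl, Tween-20 and DTT, 1 h at room temperature. H3K9me2 was detected by AlphaLISA acceptor/streptavidin donor beads (20 ug/mL each); IC50 from percent inhibition across compound dilutions.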

For the molecule `COc1cc2c3c(c(-c4coc(C)c4)nc2cc1OCCCN1CCCC1)CCC3` [Example 90, 1-(3-{[8-methoxy-4-(5-methylfuran-3-yl)-1H,2H,3H-cyclopenta[c]quinolin-7-yl]oxy}propyl)pyrrolidine formate], the IC50 worked out at 0.6 µM.
The same measure for `CCCCNc1nc2cc(OCCCN3CCCC3)c(OC)cc2c2c1CC(C)(C)C2` [Example 91, N-butyl-8-methoxy-2,2-dimethyl-7-[3-(pyrrolidin-1-yl)propoxy]-1H,2H,3H-cyclopenta[c]quinolin-4-amine formate]: 0.007 µM.
Next, `COc1cc2c3c(c(NC(C)C)nc2cc1OCCCN(C)C)CCC3` [Example 92, 7-[3-(dimethylamino)propoxy]-8-methoxy-N-(propan-2-yl)-1H,2H,3H-cyclopenta[c]quinolin-4-amine formate]: 0.059 µM; `CCN(CC)CCCOc1cc2nc(NC(C)C)c3c(c2cc1OC)CCC3` [Example 93, 7-[3-(diethylamino)propoxy]-8-methoxy-N-(propan-2-yl)-1H,2H,3H-cyclopenta[c]quinolin-4-amine formate]: 0.39 µM; `COc1cc2c3c(c(NC(C)(C)C)nc2cc1OCCCN1CCCC1)CCC3` [Example 94, N-tert-butyl-8-methoxy-7-[3-(pyrrolidin-1-yl)propoxy]-1H,2H,3H-cyclopenta[c]quinolin-4-amine formate]: 1.4 µM.
Next, `COc1cc2c3c(c(NCC(C)C)nc2cc1OCCCN1CCCC1)CC(C)(C)C3` [Example 95, N-isobutyl-8-methoxy-2,2-dimethyl-7-(3-(pyrrolidin-1-yl)propoxy)-2,3-dihydro-1H-cyclopenta[c]quinolin-4-amine formate]: 0.07 µM; `COc1cc2c3c(c(NCC4CCC4)nc2cc1OCCCN1CCCC1)CC(C)(C)C3` [Example 96, N-(cyclobutylmethyl)-8-methoxy-2,2-dimethyl-7-(3-(pyrrolidin-1-yl)propoxy)-2,3-dihydro-1H-cyclopenta[c]quinolin-4-amine formate]: 0.1 µM.
As to `COc1cc2c3c(c(NCC4CC4)nc2cc1OCCCN1CCCC1)CC(C)(C)C3` [Example 97, N-(cyclopropylmethyl)-8-methoxy-2,2-dimethyl-7-[3-(pyrrolidin-1-yl)propoxy]-1H,2H,3H-cyclopenta[c]quinolin-4-amine formate], the IC50 came to 0.084 µM.
Next, `COc1cc2c3c(c(C4CCOC4)nc2cc1OCCCN1CCCC1)CCC3` (stereo not shown) [Example 98, 1-(3-{[8-methoxy-4-(oxolan-3-yl)-1H,2H,3H-cyclopenta[c]quinolin-7-yl]oxy}propyl)pyrrolidine formate]: more than 10 µM.
Consider `CC[C@H](C)Nc1nc2cc(OCCCN3CCCC3)c(OC)cc2c2c1CCC2` [Example 99, N-[(2S)-butan-2-yl]-8-methoxy-7-[3-(pyrrolidin-1-yl)propoxy]-1H,2H,3H-cyclopenta[c]quinolin-4-amine formate], for which the IC50 was determined as 0.023 µM.
Next, `CC[C@@H](C)Nc1nc2cc(OCCCN3CCCC3)c(OC)cc2c2c1CCC2` [Example 100, N-[(2R)-butan-2-yl]-8-methoxy-7-[3-(pyrrolidin-1-yl)propoxy]-1H,2H,3H-cyclopenta[c]quinolin-4-amine formate]: 0.047 µM.
Regarding `COc1cc2c3c(c(NCC(C)(C)C)nc2cc1OCCCN1CCCC1)CCC3` [Example 101, N-(2,2-dimethylpropyl)-8-methoxy-7-[3-(pyrrolidin-1-yl)propoxy]-1H,2H,3H-cyclopenta[c]quinolin-4-amine formate], the IC50 came out at 0.07 µM.
Next, `Cl.Cl.[2H]C(C)(C)Nc1nc2cc(OCCCN3CCCC3)c(OC)cc2c2c1CCC2` [Example 102, 8-methoxy-N-[(2-^2H)propan-2-yl]-7-[3-(pyrrolidin-1-yl)propoxy]-1H,2H,3H-cyclopenta[c]quinolin-4-amine hydrochloride]: 0.013 µM.
